Measured values reported in US9694016B2 (Novartis AG, priority 2013, dated 2017).
Read-outs that look alike come from different tables or passages of the source.

Target: b-Raf (V600E) (Homo sapiens (Human), UniProt P15056, V600E)
Settings: read-out: b-Raf IC-50, AlphaScreen
[1] = 60 min pre-incubation, 3 hours reaction
[2] = 60 min pre-incubation, reaction 3 hours at room temperature

Sequence of b-Raf (V600E) (P15056 whole entry V600E): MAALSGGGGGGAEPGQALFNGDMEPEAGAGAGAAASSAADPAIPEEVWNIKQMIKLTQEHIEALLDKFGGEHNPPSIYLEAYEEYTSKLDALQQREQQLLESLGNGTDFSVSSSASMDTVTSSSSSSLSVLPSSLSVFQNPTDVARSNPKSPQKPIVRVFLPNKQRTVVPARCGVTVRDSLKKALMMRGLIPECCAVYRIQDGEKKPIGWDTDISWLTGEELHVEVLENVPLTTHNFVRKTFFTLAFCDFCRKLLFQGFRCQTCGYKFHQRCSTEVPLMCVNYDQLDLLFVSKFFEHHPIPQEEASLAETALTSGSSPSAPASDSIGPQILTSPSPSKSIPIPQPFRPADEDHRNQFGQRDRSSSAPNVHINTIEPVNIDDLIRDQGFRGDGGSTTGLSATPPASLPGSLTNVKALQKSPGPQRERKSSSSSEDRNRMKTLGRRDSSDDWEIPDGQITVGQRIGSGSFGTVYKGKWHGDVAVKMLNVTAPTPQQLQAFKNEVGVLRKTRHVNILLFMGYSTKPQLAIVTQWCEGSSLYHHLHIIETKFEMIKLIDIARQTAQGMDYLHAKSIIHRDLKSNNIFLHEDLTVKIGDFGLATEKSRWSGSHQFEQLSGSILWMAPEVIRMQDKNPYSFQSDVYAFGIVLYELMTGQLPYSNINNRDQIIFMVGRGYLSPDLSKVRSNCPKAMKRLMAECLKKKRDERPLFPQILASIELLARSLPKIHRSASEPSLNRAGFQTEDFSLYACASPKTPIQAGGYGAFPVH

Row | SMILES | IC50 [1] [nM] | IC50 [2] [nM] | further results
1 | Cc1ccc(NC(=O)c2cnnc(C(C)(C)C#N)c2)cc1-c1cc(N2CCOCC2)c(=O)n(C)n1 [Example 646, 6-(2-cyanopropan-2-yl)-N-(4-methyl-3-(1-methyl-5-morpholino-6-oxo-1,6-dihydropyridazin-3-yl)phenyl)pyridazine-4-carboxamide] | 8.4 |  | 
2 | Cc1ccc(NC(=O)c2ccnc(C(F)(F)F)c2)cc1-c1cc(N2CCOCC2)nc(N2CCOCC2)c1 [Example 1112, N-(3-(2,6-dimorpholinopyridin-4-yl)-4-methylphenyl)-2-(trifluoromethyl)isonicotinamide] |  | 0.83 | 
3 | Cc1ccc(NC(=O)c2cccc(C(C)(C)S(C)(=O)=O)c2)cc1-c1cc(N2CCOCC2)nc(N2CC(O)C2)c1 [Example 1099, N-(3-(2-(3-hydroxyazetidin-1-yl)-6-morpholinopyridin-4-yl)-4-methylphenyl)-3-(2-(methylsulfonyl)propan-2-yl)benzamide] |  | 18.8 | 
4 | CCOc1ncc(-c2cc(NC(=O)c3ccnc(C(F)F)c3)ccc2C)cc1N1CCOCC1 [Example 237, 2-(difluoromethyl)-N-(3-(6-ethoxy-5-morpholinopyridin-3-yl)-4-methylphenyl)isonicotinamide] |  |  | IC50 (Table 2, 3 hours reaction): 0.4 nM
5 | Cc1ncc(NC(=O)c2ccnc(C(F)F)c2)cc1-c1cc(NCCO)nc(N2CCOC[C@H]2C)c1 [Example 1141, (R)-2-(difluoromethyl)-N-(2′-((2-hydroxyethyl)amino)-2-methyl-6′-(3-methylmorpholino)-[3,4′-bipyridin]-5-yl)isonicotinamide] |  | 15.7 | 
6 | Cc1ccc(NC(=O)c2ccnc(C(C)C)c2)cc1-c1cc(N2CCOCC2)nc(N2CCOCC2)c1 [Example 1117, N-(3-(2,6-dimorpholinopyridin-4-yl)-4-methylphenyl)-2-isopropylisonicotinamide] |  | 1.31 | 
7 | Cc1ccc(NC(=O)c2ccnc(C(C)(C)C#N)c2)cc1-c1cc(N2CCOC[C@H]2C)c(=O)n(C)n1 [Example 672, (R)-2-(2-cyanopropan-2-yl)-N-(4-methyl-3-(1-methyl-5-(3-methylmorpholino)-6-oxo-1,6-dihydropyridazin-3-yl)phenyl)isonicotinamide] | 15.8 |  | 
8 | Cc1ncc(NC(=O)c2cc(CN(C)C)cc(C(F)(F)F)c2)cc1-c1cc(N2CCOCC2)nc(N2CC(O)C2)c1 [Example 1085, 3-((dimethylamino)methyl)-N-(2′-(3-hydroxyazetidin-1-yl)-2-methyl-6′-morpholino-[3,4′-bipyridin]-5-yl)-5-(trifluoromethyl)benzamide] |  | 108 | 
9 | Cc1ncc(NC(=O)c2cccc(C(O)C(F)(F)F)c2)cc1-c1cnc(OC2CCOCC2)c(N2CCOCC2)c1 (centres unmarked) [Example 977, N-(2-methyl-5′-morpholino-6′-((tetrahydro-2H-pyran-4-yl)oxy)[3,3′-bipyridin]-5-yl)-3-(2,2,2-trifluoro-1-hydroxyethyl)benzamide] |  | 4.21 | 
10 | CCOc1nnc(-c2cc(NC(=O)c3cc(C(F)(F)F)ccn3)cnc2C)cc1N1CCOCC1 [Example 611, N-(5-(6-ethoxy-5-morpholinopyridazin-3-yl)-6-methylpyridin-3-yl)-4-(trifluoromethyl)picolinamide] | 1.3 |  | 
11 | Cc1cc(C(=O)Nc2cnc(C)c(-c3cc(N4CCOCC4)c(=O)n(C)c3)c2)n(C)n1 [Example 376, N-(1′,2-dimethyl-5′-morpholino-6′-oxo-1′,6′-dihydro-[3,3′-bipyridin]-5-yl)-1,3-dimethyl-1H-pyrazole-5-carboxamide] |  |  | IC50 (Table 2, 3 hours reaction): 2800 nM
12 | Cn1cc(-c2cc(C(=O)Nc3cccc(C(C)(C)O)c3)cnc2Cl)cc(N2CCOCC2)c1=O [Example 424, 2-chloro-N-(3-(2-hydroxypropan-2-yl)phenyl)-t-methyl-5′-morpholino-6′-oxo-1′,6′-dihydro-[3,3′-bipyridine]-5-carboxamide] |  |  | IC50 (Table 2, 3 hours reaction): 50.4 nM
13 | CCC(F)(F)c1cc(C(=O)Nc2cnc(C)c(-c3cc(N4CCOCC4)c(OCC(F)F)nn3)c2)ccn1 [Example 914, N-(5-(6-(2,2-difluoroethoxy)-5-morpholinopyridazin-3-yl)-6-methylpyridin-3-yl)-2-(1,1-difluoropropyl)isonicotinamide] |  | 1.95 | 
14 | Cc1ncc(NC(=O)c2ccnc(C(C)C)c2)cc1-c1cc(N2CCOCC2)c2nccn2n1 [Example 869, 2-isopropyl-N-(6-methyl-5-(8-morpholinoimidazo[1,2-b]pyridazin-6-yl)pyridin-3-yl)isonicotinamide] |  | 1.3 | 
15 | CC(C)c1cc(C(=O)Nc2ccc(Cl)c(-c3cc(N4CCOCC4)c(=O)n(C)c3)c2)ccn1 [Example 421, N-(4-chloro-3-(1-methyl-5-morpholino-6-oxo-1,6-dihydropyridin-3-yl)phenyl)-2-isopropylisonicotinamide] |  |  | IC50 (Table 2, 3 hours reaction): 1 nM
16 | Cc1ncc(NC(=O)c2ccnc(C(C)C)c2)cc1-c1cnc(N(C)C)c(N2CCOCC2)c1 [Example 308, N-(6′-(dimethylamino)-2-methyl-5′-morpholino-[3,3′-bipyridin]-5-yl)-2-isopropylisonicotinamide] |  |  | IC50 (Table 2, 3 hours reaction): 0.8 nM
17 | Cc1ccc(NC(=O)c2cccc(C(F)(F)F)c2)cc1-c1cc(N2CCOCC2)c(=O)n(C)n1 [Example 164, N-(4-methyl-3-(1-methyl-5-morpholino-6-oxo-1,6-dihydropyridazin-3-yl)phenyl)-3-(trifluoromethyl)benzamide] |  |  | IC50 (Table 2, 3 hours reaction): 1.7 nM
18 | Cc1ncc(NC(=O)c2ccnc(C(F)(F)F)c2)cc1-c1cnc(OC(F)F)c(N2CCOCC2)c1 [Example 978] |  | 1.86 | 
19 | Cc1ccc(NC(=O)c2ccnc(C(F)(F)F)c2)cc1-c1cc(N2CCOCC2)nc(N(C)C)n1 [Example 758, N-(3-(2-(dimethylamino)-6-morpholinopyrimidin-4-yl)-4-methylphenyl)-2-(trifluoromethyl)isonicotinamide] | 2.8 |  | 
20 | Cc1ccc(NC(=O)c2cnnc(C(C)(C)C#N)c2)cc1-c1cc(NCCO)nc(N2CCOCC2)c1F [Example 1012, 6-(2-cyanopropan-2-yl)-N-(3-(3-fluoro-6-((2-hydroxyethyl)amino)-2-morpholinopyridin-4-yl)-4-methylphenyl)pyridazine-4-carboxamide] |  | 70.6 | 
21 | CCOc1ncc(-c2cc(NC(=O)c3cccc(C(F)F)c3)ccc2C)cc1N1CCOCC1 [Example 231, 3-(difluoromethyl)-N-(3-(6-ethoxy-5-morpholinopyridin-3-yl)-4-methylphenyl)benzamide] |  |  | IC50 (Table 2, 3 hours reaction): 0.4 nM
22 | COc1nnc(-c2cc(NC(=O)c3ccnc(C(C)(C)O)c3)ccc2C)cc1N1CCOCC1 [Example 556, 2-(2-hydroxypropan-2-yl)-N-(3-(6-methoxy-5-morpholinopyridazin-3-yl)-4-methylphenyl)isonicotinamide] | 3.9 |  | 
23 | CCC(F)(F)c1cc(C(=O)Nc2cnc(C)c(-c3cncc(N4CCOCC4)n3)c2)ccn1 [Example 537, 2-(1,1-difluoropropyl)-N-(6-methyl-5-(6-morpholinopyrazin-2-yl)pyridin-3-yl)isonicotinamide] | 4.4 |  | 
24 | Cc1ncc(NC(=O)c2cccc(C(F)(F)F)c2)cc1-c1cc(N2CCOCC2)n2nccc2n1 [Example 793] | 1.3 |  | 
25 | Cc1ccc(NC(=O)c2ccnc(C(C)(C)C#N)c2)cc1-c1cc(N2CCOCC2)nc(N[C@@H](C)CO)n1 [Example 746] | 4.6 |  | 
26 | Cc1ccc(NC(=O)c2ccnc(C(F)(F)F)c2)cc1-c1cc(OCCO)nc(N2CCOCC2)c1 [Example 1156, N-(3-(2-(2-hydroxyethoxy)-6-morpholinopyridin-4-yl)-4-methylphenyl)-2-(trifluoromethyl)isonicotinamide] |  | 0.73 | 
